17 molecules from patent publication US20230340011A1 (Asteroid Therapeutics, priority 2022, published 2023) can be followed below.

pEC50, pIC50: −log10 of the molar value. Bounds are passed on as bounds.

One assay concerns the target SREBP-2 (Homo sapiens (Human), UniProt Q12772). As to the kind of experiment: In vitro assay SREBP-2: PathHunter U2OS SREBP-2 Nuclear Translocation Cell Line, U18666A-stimulated. It is filed as cell-based. As to conditions: PathHunter U2OS SREBP-2 nuclear translocation cells, U18666A 10 μM, overnight (16 hours).
Another assay addresses LXRβ (Homo sapiens (Human), UniProt P55055). As to the kind of experiment: In vitro assay LXRβ: PathHunter NHR CHO cells, LXRβ / Steroid Receptor Co-activator Peptide enzyme fragment complementation. It is filed as cell-based. As to conditions: PathHunter NHR CHO cells, full-length human LXRβ and SRCP, chemiluminescent signal; read-out: LXRβ PPI. The procedure, abridged: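 Enzyme fragment complementation read-out: CHO cells stably expressing ProLink-tagged full-length human LXRβ plus nuclear enzyme acceptor–SRCP fusion, seeded and held overnight at 37° C. Medium with charcoal-dextran filtered serum; final vehicle 1%. Chemiluminescence measured after signal generation.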

LXRβ, sequence (P55055 whole entry, the tested form may be a part): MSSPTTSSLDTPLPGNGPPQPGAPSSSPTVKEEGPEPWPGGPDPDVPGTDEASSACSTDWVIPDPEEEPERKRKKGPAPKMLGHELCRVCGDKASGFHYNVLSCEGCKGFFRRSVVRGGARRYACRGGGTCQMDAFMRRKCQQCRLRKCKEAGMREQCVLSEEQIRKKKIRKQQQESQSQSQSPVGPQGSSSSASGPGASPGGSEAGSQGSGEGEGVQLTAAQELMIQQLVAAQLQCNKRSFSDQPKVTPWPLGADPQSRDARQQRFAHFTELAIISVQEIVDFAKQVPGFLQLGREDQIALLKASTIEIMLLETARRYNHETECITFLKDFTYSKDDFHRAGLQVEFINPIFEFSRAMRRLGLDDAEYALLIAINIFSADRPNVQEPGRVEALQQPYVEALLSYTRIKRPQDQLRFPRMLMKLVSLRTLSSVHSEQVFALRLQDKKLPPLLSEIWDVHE

For orientation: pIC50 means the negative decadic logarithm of the IC50, by convention in mol/L. For `COC([C@@H]1CCN(C(=O)CC[C@@H](C)[C@H]2CC[C@H]3[C@@H]4CC=C5C[C@@H](O)CC[C@]5(C)[C@H]4CC[C@]23C)C1)(C(F)(F)F)C(F)(F)F` [Example 331, (4R)-4-[(1R,3aS,3bS,7S,9aR,9bS,11aR)-7-hydroxy-9a,11a-dimethyl-1H,2H,3H,3aH,3bH,4H,6H,7H,8H,9H,9aH,9bH,10H,11H,11aH-cyclopenta[a]phenanthren-1-yl]-1-[(3R)-3-(1,1,1,3,3,3-hexafluoro-2-methoxypropan-2-yl)pyrrolidin-1-yl]pentan-1-one], on SREBP-2, the pIC50 is more than 6.60. In addition, the pEC50 at LXRβ was less than 5.00.
On to `C[C@H](CCC(=O)N1CCN(C(=O)c2ncccn2)CC1)[C@H]1CC[C@H]2[C@@H]3CC=C4C[C@@H](O)CC[C@]4(C)[C@H]3CC[C@]12C` [Example 332, (R)-4-((3S,8S,9S,10R,13R,14S,17R)-3-hydroxy-10,13-dimethyl-2,3,4,7,8,9,10,11,12,13,14,15,16,17-tetradecahydro-1H-cyclopenta[a]phenanthren-17-yl)-1-(4-(pyrimidine-2-carbonyl)piperazin-1-yl)pentan-1-one], for which the pIC50 against SREBP-2 is more than 6.60. In addition, the pEC50 on LXRβ was less than 5.00.
In the same order, the values of `C[C@H](CCC(=O)N1CCN(C(=O)c2ccncn2)CC1)[C@H]1CC[C@H]2[C@@H]3CC=C4C[C@@H](O)CC[C@]4(C)[C@H]3CC[C@]12C` [Example 334, (R)-4-((3S,8S,9S,10R,13R,14S,17R)-3-hydroxy-10,13-dimethyl-2,3,4,7,8,9,10,11,12,13,14,15,16,17-tetradecahydro-1H-cyclopenta[a]phenanthren-17-yl)-1-(4-(pyrimidine-4-carbonyl)piperazin-1-yl)pentan-1-one] are more than 6.60 and less than 5.00.
In the same order, the values of `C[C@H](CCC(=O)N1CCN(C(=O)c2ccccn2)CC1)[C@H]1CC[C@H]2[C@@H]3CC=C4C[C@@H](O)CC[C@]4(C)[C@H]3CC[C@]12C` [Example 335, (4R)-4-[(1R,3aS,3bS,7S,9aR,9bS,11aR)-7-hydroxy-9a,11a-dimethyl-1H,2H,3H,3aH,3bH,4H,6H,7H,8H,9H,9aH,9bH,10H,11H,11aH-cyclopenta[a]phenanthren-1-yl]-1-[4-(pyridine-2-carbonyl)piperazin-1-yl]pentan-1-one] are more than 6.60 and less than 5.00.
With `C[C@H](CCC(=O)N1CCN(C(=O)C(C)(C)O)CC1)[C@H]1CC[C@H]2[C@@H]3CC=C4C[C@@H](O)CC[C@]4(C)[C@H]3CC[C@]12C` [Example 336, (R)-4-((3S,8S,9S,10R,13R,14S,17R)-3-hydroxy-10,13-dimethyl-2,3,4,7,8,9,10,11,12,13,14,15,16,17-tetradecahydro-1H-cyclopenta[a]phenanthren-17-yl)-1-(4-(2-hydroxy-2-methylpropanoyl)piperazin-1-yl)pentan-1-one], on SREBP-2, the pIC50 was more than 6.60. The pEC50 on LXRβ is less than 5.00.
In the same order, the values of `CNC(=O)N1CCN(C(=O)CC[C@@H](C)[C@H]2CC[C@H]3[C@@H]4CC=C5C[C@@H](O)CC[C@]5(C)[C@H]4CC[C@]23C)CC1` [Example 337, 4-[(4R)-4-[(1R,3aS,3bS,7S,9aR,9bS,11aR)-7-hydroxy-9a,11a-dimethyl-1H,2H,3H,3aH,3bH,4H,6H,7H,8H,9H,9aH,9bH,10H,11H,11aH-cyclopenta[a]phenanthren-1-yl]pentanoyl]-N-methylpiperazine-1-carboxamide] are more than 6.60 and less than 5.00.
In the case of `C[C@H](CCC(=O)N1CCN(C(=O)NC2CC2)CC1)[C@H]1CC[C@H]2[C@@H]3CC=C4C[C@@H](O)CC[C@]4(C)[C@H]3CC[C@]12C` [Example 338, 4-[(4R)-4-[(1R,3aS,3bS,7S,9aR,9bS,11aR)-7-hydroxy-9a,11a-dimethyl-1H,2H,3H,3aH,3bH,4H,6H,7H,8H,9H,9aH,9bH,10H,11H,11aH-cyclopenta[a]phenanthren-1-yl]pentanoyl]-N-cyclopropylpiperazine-1-carboxamide], the pIC50 against SREBP-2 was more than 6.60. Also, the pEC50 on LXRβ was less than 5.00.
At SREBP-2, `C[C@H](CCC(=O)N1CCN(C(=O)N(C)C)CC1)[C@H]1CC[C@H]2[C@@H]3CC=C4C[C@@H](O)CC[C@]4(C)[C@H]3CC[C@]12C` [Example 339, 4-[(4R)-4-[(1R,3aS,3bS,7S,9aR,9bS,11aR)-7-hydroxy-9a,11a-dimethyl-1H,2H,3H,3aH,3bH,4H,6H,7H,8H,9H,9aH,9bH,10H,11H,11aH-cyclopenta[a]phenanthren-1-yl]pentanoyl]-N,N-dimethylpiperazine-1-carboxamide] showed a pIC50 of more than 6.60. Besides, the pEC50 at LXRβ is less than 5.00.
In the same order, the values of `C[C@H](CCC(=O)N1CCN(C(=O)OC2CC2)CC1)[C@H]1CC[C@H]2[C@@H]3CC=C4C[C@@H](O)CC[C@]4(C)[C@H]3CC[C@]12C` [Example 340, cyclopropyl4-[(4R)-4-[(1R,3aS,3bS,7S,9aR,9bS,11aR)-7-hydroxy-9a,11a-dimethyl-1H,2H,3H,3aH,3bH,4H,6H,7H,8H,9H,9aH,9bH,10H,11H,11aH-cyclopenta[a]phenanthren-1-yl]pentanoyl]piperazine-1-carboxylate] are more than 6.60 and less than 5.00.
For `CC(C)OC(=O)N1CCN(C(=O)CC[C@@H](C)[C@H]2CC[C@H]3[C@@H]4CC=C5C[C@@H](O)CC[C@]5(C)[C@H]4CC[C@]23C)CC1` [Example 341, isopropyl4-((R)-4-((3S,8S,9S,10R,13R,14S,17R)-3-hydroxy-10,13-dimethyl-2,3,4,7,8,9,10,11,12,13,14,15,16,17-tetradecahydro-1H-cyclopenta[a]phenanthren-17-yl)pentanoyl)piperazine-1-carboxylate], in that order: more than 6.60 and less than 5.00.
In the same order, the values of `C[C@H](CCC(=O)N1CCN(C(=O)c2nnn(C)n2)CC1)[C@H]1CC[C@H]2[C@@H]3CC=C4C[C@@H](O)CC[C@]4(C)[C@H]3CC[C@]12C` [Example 342, (R)-4-((3S,8S,9S,10R,13R,14S,17R)-3-hydroxy-10,13-dimethyl-2,3,4,7,8,9,10,11,12,13,14,15,16,17-tetradecahydro-1H-cyclopenta[a]phenanthren-17-yl)-1-(4-(2-methyl-2H-tetrazole-5-carbonyl)piperazin-1-yl)pentan-1-one] are more than 6.60 and less than 5.00.
As to `CCC1(O)CCN(C(=O)OC[C@@H](C)[C@H]2CC[C@H]3[C@@H]4CC=C5C[C@@H](O)CC[C@]5(C)[C@H]4CC[C@]23C)CC1` [Example 348, (S)-2-((3S,8S,9S,10R,13S,14S,17R)-3-hydroxy-10,13-dimethyl-2,3,4,7,8,9,10,11,12,13,14,15,16,17-tetradecahydro-1H-cyclopenta [a]phenanthren-17-yl)propyl 4-ethyl-4-hydroxypiperidine-1-carboxylate], the pIC50 against SREBP-2 was more than 6.60. Besides, the pEC50 on LXRβ is less than 5.00.
For `COCCN(C)C(=O)OC[C@@H](C)[C@H]1CC[C@H]2[C@@H]3CC=C4C[C@@H](O)CC[C@]4(C)[C@H]3CC[C@]12C` [Example 349, (S)-2-((3S,8S,9S,10R,13S,14S,17R)-3-hydroxy-10,13-dimethyl-2,3,4,7,8,9,10,11,12,13,14,15,16,17-tetradecahydro-1H-cyclopenta[a]phenanthren-17-yl)propyl (2-methoxyethyl)(methyl)carbamate], in that order: more than 6.60 and less than 5.00.
For `C[C@H](COC(=O)N(C)CCO)[C@H]1CC[C@H]2[C@@H]3CC=C4C[C@@H](O)CC[C@]4(C)[C@H]3CC[C@]12C` [Example 350, (2S)-2-[(1R,3aS,3bS,7S,9aR,9bS,11aS)-7-hydroxy-9a,11a-dimethyl-1H,2H,3H,3aH,3bH,4H,6H,7H,8H,9H,9aH,9bH,10H,11H,11aH-cyclopenta[a]phenanthren-1-yl]propyl N-(2-hydroxyethyl)-N-methylcarbamate], in that order: 6.00 to 6.60 and less than 5.00.
For the molecule `CNC(=O)OC[C@@H](C)[C@H]1CC[C@H]2[C@@H]3CC=C4C[C@@H](O)CC[C@]4(C)[C@H]3CC[C@]12C` [Example 351, (S)-2-((3S,8S,9S,10R,13S,14S,17R)-3-hydroxy-10,13-dimethyl-2,3,4,7,8,9,10,11,12,13,14,15,16,17-tetradecahydro-1H-cyclopenta[a]phenanthren-17-yl)propyl methylcarbamate], at SREBP-2, the pIC50 is more than 6.60. Moreover, the pEC50 on LXRβ was less than 5.00.
For `CCN(C)C(=O)OC[C@@H](C)[C@H]1CC[C@H]2[C@@H]3CC=C4C[C@@H](O)CC[C@]4(C)[C@H]3CC[C@]12C` [Example 352, (2S)-2-[(1R,3aS,3bS,7S,9aR,9bS,11aS)-7-hydroxy-9a,11a-dimethyl-1H,2H,3H,3aH,3bH,4H,6H,7H,8H,9H,9aH,9bH,10H,11H,11aH-cyclopenta[a]phenanthren-1-yl]propyl N-ethyl-N-methylcarbamate], in that order: more than 6.60 and 5.00 to 6.00.
Regarding `CCn1c(CC[C@@H](C)[C@H]2CC[C@H]3[C@@H]4CC=C5C[C@@H](O)CC[C@]5(C)[C@H]4CC[C@]23C)n[nH]c1=S` [Example 353, 4-ethyl-5-((R)-3-((3S,8S,9S,10R,13R,14S,17R)-3-hydroxy-10,13-dimethyl-2,3,4,7,8,9,10,11,12,13,14,15,16,17-tetradecahydro-1H-cyclopenta[a]phenanthren-17-yl)butyl)-2,4-dihydro-3H-1,2,4-triazole-3-thione], the pIC50 on SREBP-2 was more than 6.60. On LXRβ, the pEC50 is less than 5.00.
